Assay results published in patent publication US20250195474A1, “Piezo Inhibition for Wound Healing” (priority 2022, published 2025).

How the values were obtained:
[1] = tested on: mouse adipocytes; test: Mouse adipocyte-populated collagen I hydrogels with or without mechanical stretch; settings: 10% equibiaxial strain, 7 days; GsMTx4 500 nM, D-GsMTx4 500 nM, PF573228 10 uM, Verteporfin 300 nM
[2] = tested on: adipocytes; test: Adipocyte ablation with diphtheria toxin in wounded Adipoq Cre-ERT iDTR mice; type: in vivo, mouse
[3] = tested on: existing scars; test: Treatment of existing scars during remodeling (scar rescue); type: in vivo, mouse; settings: treated at POD 30, 75 or 120, harvested one month later
Source text: While wound re-epithelialization is complete relatively quickly (around 2 weeks), wounds continue to heal beneath the surface for months to years in a process known as scar remodeling. (Foster et al., 2021; Gurtner et al., 2008) Remodeling is the longest and least well understood phase of wound repair but is likely critical to ultimate outcomes. We postulated that ADFs could continue to play a role in scarring during the remodeling process; if this were the case, we wondered whether ADF activity could be targeted during wound remodeling, via P1i in existing, actively remodeling scars, to ultimately reduce scarring and drive regeneration (FIG. 6A,C). Thus, we administered P1i to existing scars at POD 30 (early remodeling period), POD 75 (mid-remodeling), and POD 120 (late remodeling), then harvested tissue one month later at POD 60, POD 105, and […] respectively (FIG. 6A, C).

[4] = tested on: dorsal excisional wounds; settings: POD 30; cited from earlier work
[5] = tested on: human adipocytes; test: Human adipocyte-populated collagen I hydrogels with or without mechanical stretch
[6] = tested on: dorsal excisional wounds; test: Splinted dorsal excisional wounding with inhibitor injected at POD 0; type: in vivo, mouse
[7] = tested on: human adipocytes; test: Calcium imaging of hydrogel-bound adipocytes (Fluo-4 AM); type: cell-based; settings: stretched human adipocytes
Source text: Calcium imaging was used to determine in vitro Ca^2+ flow in hydrogel-bound adipocytes with or without mechanical strain and with or without Piezo1 inhibitor treatment. A Fluo-4, AM cell permeant kit (ThermoFisher, Cat: F-14201) was used per the manufacturer's instructions. […] Imagej was used for image quantification.

[8] = tested on: wounds; test: Visium spatial transcriptomic analysis of wounds; type: in vivo, mouse
Protocol: Wound specimens were rapidly harvested and flash frozen in OCT. Using the Visium Tissue Optimization Slide and Reagent Kit, permeabilization time was optimized at a thickness at 10 μm per section and 37 minutes for mouse tissue. Following cryo-sectioning at −20 degrees onto gene expression slides the expression slide and reagent kit was used to produce sequencing libraries. The libraries were then sequences using NextSeq (Illumina). Following demultiplication the raw FASTQ files and histology images were processed by sample with the Space Ranger software for genome alignment. The raw spaceranger output files for each sample was then read into a Seurat class object in R using Seurat's Load10× function. Data was normalized using the SCT transform with default parameters. To ascertain the integration of our scRNAseq and Visium spatial analysis we employed the FindTransferAnchors( ) function from Seurat, which allowed the alignment of data using the two datasets. This cross-platform linkage is performed serially in an unconstrained and constrained fashion.

[9] = tested on: wounds; test: CODEX spatial protein analysis of POD 14 wounds; type: in vivo, mouse; settings: POD 14, vs PBS
Source text: To spatially phenotype the pig specimens, we used Co-Detection by Indexing (CODEX), a novel assay in which markers are labeled with oligonucleotide-conjugated antibodies and iteratively imaged between cyclic additions and washouts of dye-labeled oligonucleotides. A custom CODEX panel was designed to assess wound cells within the tissue see Table 1). In brief, primary antibodies were individually barcoded and validated using the commercial supplier's protocols. OCT for mouse or paraffin blocks for human xenograft (n=3 per group) were sectioned at 8 μm thickness onto coverslips for CODEX antibody staining. Antigens were retrieved by standard citrate-EDTA processing prior to addition of CODEX antibodies. Using a CODEX-integrated Keyence BZ-X instrument (Akoya Biosciences) image acquisition was then performed. Using software from Akoya Biosciences the raw images were process, with cell segmentation, and rendering.
The CODEX was visualized using Akoya Biosciences Multiplex Analysis Viewer (MAV) in ImageJ. The resulting .fcs files were then concatenated in FlowJo and imported into the Monocle3 and STvEA R packages for further analysis. After debris removal, the processed UMAP manifold was analyzed through Monocle3 with a post-manifold threshold of >10,000 cells per cluster. Analysis of the protein staining patterns was then used to assign cell types. The cell interactions were then inferred using STvEA for cell types at >2.5% of total abundance at k=20 nearest neighbors to quantify cell spatial interactions, and differential interaction maps were generated using graph scores.

[10] = tested on: human fibroblasts; test: Human fibroblasts in 3D collagen gels with stretching; type: cell-based
Source text: To further confirm that human cluster 3 represented a pro-regenerative ADF population we utilized our in vitro collagen gel system. We first, FACS sorted human fibroblasts based on expression of cluster 3 markers including ROBO2, CD29, and SFRP2 and seeded them into 3D collagen gels (FIG. 42B). […] In contrast, stretching with P1 inhibition kept the fibroblasts in a more adipocyte-like phenotype, with high expression of PPARg and low expression of Collagen Type I, similar to fibroblasts in an unstretched state (FIG. 42B).
To determine if P1i may activate […] Wnt pathways to maintain cluster 3 in an adipocyte-like phenotype, we applied Wnt5a recombinant protein to the in vitro collagen gel system (FIG. 42C). […] In summary, P1i treatment may revert fibroblasts towards the mechanically naïve fibroblast pro-regenerative fibroblast population through the activation of canonical Wnt pathways and thereby preventing the transition to pro-scarring phenotypes defined by CJUN and VCAM1 expression.

CS(=O)(=O)c1cccc(CNc2nc(Nc3ccc4c(c3)CCC(=O)N4)ncc2C(F)(F)F)c1 [FAKi, PF573228]
stretch-induced phenotypic switch (losing adiponectin, expressing Col1) [1]: abrogated

diphtheria toxin [DT]
subdermal fat and GFP+ cells (efficacy of ablation) ([2]; 200 ng intradermal daily over 3 days, unwounded skin and POD 14 wounds): minimal to no subdermal fat and no GFP^+ cells in wounds | ECM ultrastructure ([2]; POD 14): less scar-like and more closely resembled unwounded skin | Col1 and α-SMA content ([2]; POD 14, vs PBS control scars): decreased | ECM density ([2]; POD 14, vs PBS control scars): less dense | dermal thickness ([2]; POD 14, vs PBS control scars): significantly reduced

Verteporfin [YAPi]
wound regeneration in existing scars [3]: did not induce regeneration | hair regrowth (previous study, Mascharak et al., 2021a) [4]: allow for hair regrowth | stretch-induced phenotypic switch (losing adiponectin, expressing Col1) [1]: abrogated

Clc1cccc(Cl)c1CSc1nnc(-c2cnccn2)s1 [Yoda1]
adipocyte hypertrophy and conversion to fibroblasts ([5]; absence of applied stretch): sufficient to drive adipocyte hypertrophy and conversion to fibroblasts

D-GsMTx4 [P2i]
stretch-induced hypertrophy of human adipocytes ([5]; 10% equibiaxial strain, 7 days): reversed | time to complete wound re-epithelialization ([6]; 30 uL of 0.2 mg/ml intradermal at wound edge, POD 0): did not significantly affect | Oil Red O staining and IF for cytokeratins 14/19 (regenerating appendages) ([6]; POD 14): presence of putative regenerating sebaceous glands/HF | adipocyte-derived fibroblasts (ADFs) in wounds ([6]; POD 14, FACS and histology): significantly reduced | Col1 and α-SMA ([6]; POD 14 and POD 30): reduced | ECM density ([6]; POD 14 and POD 30): less dense | hair follicle formation ([6]; POD 30): allowed for hair follicle formation | calcium staining with stretching [7]: decreased | stretch-induced phenotypic switch (losing adiponectin, expressing Col1) [1]: abrogated | differential interaction maps (Visium) ([8]; POD 14): strong interactions between adipocytes and fibroblasts | fibroblast scRNA-seq cluster 0 (mechanically sensitive) spatial enrichment ([8]; POD 14): highly enriched in PBS-treated POD 14 wounds compared to P1i or P2i treated wounds | fibroblast scRNA-seq cluster 5 (mechanically naive) spatial presence ([8]; POD 14): observed | spatially variable features (gene expression) ([8]; POD 14): high expression of markers associated with the epidermis including Krt1 and Krt14 | adipocyte and epithelial cells in the spatial environment ([8]; POD 14, vs PBS): enriched | individual adipocyte-fibroblast subpopulation interactions (CODEX) [9]: enhanced interactions between mechanically naïve subpopulations including adipocyte cluster 1 and fibroblast clusters 2 and 4

B1: Wnt5a recombinant protein: Wnt5a recombinant protein applied to the in vitro collagen gel system (protein, UniProt P41221 62-380, looked up)
Protein Wnt-5a: IIGAQPLCSQLAGLSQGQKKLCHLYQDHMQYIGEGAKTGIKECQYQFRHRRWNCSTVDNTSVFGRVMQIGSRETAFTYAVSAAGVVNAMSRACREGELSTCGCSRAARPKDLPRDWLWGGCGDNIDYGYRFAKEFVDARERERIHAKGSYESARILMNLHNNEAGRRTVYNLADVACKCHGVSGSCSLKTCWLQLADFRKVGDALKEKYDSAAAMRLNSRGKLVQVNSRFNSPTTQDLVYIDPSPDYCVRNESTGSLGTQGRLCNKTSEGMDGCELMCCGRGYDQFKTVQTERCHCKFHWCCYVKCKKCTEIVDQFVCK
phenotype of human fibroblasts (PPARg, Collagen Type 1) [10]: a more adipocyte like phenotype with high expression of PPARg and low expression of Collagen Type 1
